Holding throughout (experiment): DTP human tumour cell line panel, 48 h
The subject of assay [1] is SK-OV-3.
Assay [2] has as its system T47D.
For assay [3], the system named is MDA-N.
Assay [4] has as its system COLO 205.
The test system of assay [5] is DU-145.
The test system of assay [6] is HCT-116.
Assay [7] deals with HCT-15.
For assay [8], the system named is SN12C.
Assay [9] has as its system NCI-H522.
The subject of assay [10] is Malme-3M.
The subject of assay [11] is SNB-19.
Assay [12] concerns MDA-MB-435.
Assay [13] has as its system NCI-H23.
Assay [14] relates to IGROV-1.
For assay [15], the system named is OVCAR-4.
Assay [16] has as its system SR.
In assay [17] the test system is 786-0.
For assay [18], the system named is OVCAR-8.
Assay [19] relates to UO-31.
The test system of assay [20] is OVCAR-3.

These results are taken from ChEMBL document CHEMBL1201862, “PubChem BioAssay data set” (2004).

What is called GI50 is the concentration at which growth is held to half of that of the control.

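The compound was tested at five concentrations on cells cultured in 96-well plates, with a 48-hour exposure period. GI50 marks 50% less growth.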 Calls of active or inactive are those of the source. Rule as the data show it: active = GI50 up to about 1.1 µM and inactive = higher. *1 amine or outer side, *2 acyl side, *3 side chain or, on linkers, in order; H or OH if unused. Where a SMILES comes first, the peptide text is derived from it. [ ]: non-standard residue; d: D form. The star is where a group is joined. X31 = CC(=O)N(C)SCC(N[*:1])C(=O)[*:2]; Fmoc = O=C(OCC1c2ccccc2-c2ccccc21)*; For = O=C* A value given as a limit tells only on which side of the number the result lay.

Consider `Cn1c(=O)c2nc(SCCN3CCOCC3)[nH]c2n(C)c1=S`, for which the GI50 in [1], in assay [2], in assay [3], in [4], in assay [5] and in [6] was > 100 µM (inactive) each time. The GI50 in [7] was above 100 µM; in [8], > 100 µM (inactive); in [9] it was > 100 µM (inactive); in [10], > 100 µM (inactive); in assay [11], > 100 µM (inactive); in assay [12], > 100 µM (inactive). The GI50 in assay [13], in assay [14], in assay [15], in assay [16], in [17] and in assay [18] was > 100 µM (inactive) throughout. Further, the GI50 in assay [19] and in [20] was > 100 µM (inactive) in each case.

With `O=C(NCCCN1CCN(CCCNC(=O)c2cc(-c3ccccc3)nc3ccccc23)CC1)c1cc(-c2ccccc2)nc2ccccc12`, the GI50 in [1] was 16.4 µM (inactive); in assay [2] it was 8.99 µM (inactive); in assay [3], 5.64 µM (inactive); in [4], 8.77 µM (inactive); in assay [5], 29.8 µM (inactive); in assay [6], 23.4 µM (inactive). Moreover, the GI50 is 19.4 µM in assay [7]; 16.3 µM (inactive) in assay [8]; 14 µM (inactive) in [9]; 1.59 µM (inactive) in assay [10]; 14.1 µM (inactive) in assay [11]; 4.15 µM (inactive) in assay [12]. The GI50 in assay [13] was 37.3 µM (inactive); in [14], 9.53 µM (inactive); in [15], 17.8 µM (inactive); in [16], 3.37 µM (inactive); in assay [17] it was 7.11 µM (inactive); in [18] it was 12.2 µM (inactive). Besides, the GI50 in assay [19] is 9.18 µM (inactive); in assay [20], 27.7 µM (inactive).

`S=C(NC/C(Br)=C/Br)Nc1cccc2ccccc12`: the GI50 in [1] is 37.5 µM (inactive); in assay [2], 40.4 µM (inactive); in assay [3] it was 25.4 µM (inactive); in [4], 18.5 µM (inactive); in [5], 30.9 µM (inactive); in [6] it was 24.2 µM (inactive). Further, the GI50 is 31.3 µM in [7]; 24.4 µM (inactive) in assay [8]; 20 µM (inactive) in assay [9]; 28.9 µM (inactive) in [10]; 34 µM (inactive) in assay [11]; 34 µM (inactive) in [12]. For the same molecule, the GI50 in assay [13] is 23.5 µM (inactive); in assay [14] it was 29.3 µM (inactive); in [15] it was 30.3 µM (inactive); in [16], 15.4 µM (inactive); in assay [17] it was 38.8 µM (inactive); in assay [18], 27.6 µM (inactive). The GI50 in assay [19] is 20.9 µM (inactive); in [20], 24 µM (inactive).

In the case of `CCOC(=O)Cn1nnc2ccc(Nc3nc4ccccc4nc3-c3ccccc3)cc21`, the GI50 in assay [1] was 90.8 µM (inactive); in [2], > 100 µM (inactive); in assay [3] it was > 100 µM (inactive); in assay [4], > 100 µM (inactive); in assay [5] it was 11 µM (inactive); in [6] it was 95.3 µM (inactive). The GI50 in assay [7] was above 100 µM; in assay [8], > 100 µM (inactive); in [9] it was > 100 µM (inactive); in [10] it was > 100 µM (inactive); in assay [11], 70 µM (inactive); in assay [12], > 100 µM (inactive). In addition, the GI50 in [13] was > 100 µM (inactive); in [14], > 100 µM (inactive); in [15], 68.9 µM (inactive); in assay [16] it was > 100 µM (inactive); in assay [17] it was 32.3 µM (inactive); in assay [18], > 100 µM (inactive). In addition, the GI50 in assay [19] was 4.72 µM (inactive); in assay [20], 60.7 µM (inactive).

Consider `CC1(C)CCCCCCC2OC2CCCCCC(C)(C)C1=O` (stereo not given), for which the GI50 was 69.8 µM (inactive) in [1]; 29.9 µM (inactive) in [2]; 35.8 µM (inactive) in [3]; 14.4 µM (inactive) in [4]; > 71.1 µM (inactive) in assay [5]; 35.8 µM (inactive) in assay [6]. For the same molecule, the GI50 in assay [7] is above 89.5 µM; in assay [8], > 44.8 µM (inactive); in [9], 22.1 µM (inactive); in assay [10], > 53.8 µM (inactive); in assay [11], > 89.3 µM (inactive); in assay [12] it was 35.5 µM (inactive). Also, the GI50 is 57.7 µM (inactive) in assay [13]; 47.8 µM (inactive) in [14]; 46.2 µM (inactive) in assay [15]; 27.5 µM (inactive) in [16]; 39.3 µM (inactive) in assay [17]; 44.4 µM (inactive) in assay [18]. Besides, the GI50 in [19] is 25.5 µM (inactive); in [20], 34.1 µM (inactive).

With `C/C(=N\NC(=O)c1ccc(Cl)cc1)c1nc2cccnc2[nH]1`, the GI50 was 20.4 µM (inactive) in assay [1]; 22.8 µM (inactive) in assay [2]; 30.5 µM (inactive) in assay [3]; 30.5 µM (inactive) in [4]; 49 µM (inactive) in assay [5]; 32.6 µM (inactive) in [6]. Moreover, the GI50 in assay [7] was 11.7 µM; in [8] it was 27.6 µM (inactive); in assay [9] it was 18.7 µM (inactive); in assay [10], 14.2 µM (inactive); in assay [11], 18.9 µM (inactive); in assay [12], 25.2 µM (inactive). The GI50 in [13] is 33.8 µM (inactive); in assay [14], 15.1 µM (inactive); in assay [15], 18.2 µM (inactive); in assay [16], 18 µM (inactive); in assay [17], 16 µM (inactive); in assay [18] it was 15.5 µM (inactive). Also, the GI50 in assay [19] was 26.7 µM (inactive); in assay [20], 22.9 µM (inactive).

`CC(=O)N(C)SCC(NC(=O)C(Cc1ccccc1)NC(=O)OCC1c2ccccc2-c2ccccc21)C(=O)NC(Cc1ccccc1)C(=O)NC(Cc1cn(C=O)c2ccccc12)C(=O)NC(CCCCNC(=O)OCC1c2ccccc2-c2ccccc21)C(=O)NC(C(=O)NC(CSN(C)C(C)=O)C(=O)NC(C(N)=O)C(C)O)C(C)O` (stereo not given) (Fmoc-F[X31]FW(For)K(Fmoc)T[X31]T-NH2; configuration not given here): the GI50 in [1] was 37.2 µM (inactive); in [2] it was > 100 µM (inactive); in [3], 36.7 µM (inactive); in [4], 36.6 µM (inactive); in assay [5], > 100 µM (inactive); in assay [6] it was 77.8 µM (inactive). In addition, the GI50 in assay [7] was 95.1 µM; in [8] it was > 100 µM (inactive); in [9] it was 89.7 µM (inactive); in [10], > 100 µM (inactive); in assay [11], 75.5 µM (inactive); in assay [12], 94.4 µM (inactive). Moreover, the GI50 in assay [13] is 20.8 µM (inactive); in assay [14] it was 66.4 µM (inactive); in [15] it was > 100 µM (inactive); in assay [16], 76.9 µM (inactive); in [17] it was > 100 µM (inactive); in assay [18], > 100 µM (inactive). In addition, the GI50 in assay [19] was 16.2 µM (inactive); in assay [20], > 100 µM (inactive).
